Test results from US20070141707A1, “Sponge toxins” (priority 2003, published 2007).

Key:
[1] = read-out: KD for zinc; cited from earlier work
[2] = system: HEK293 cells; assay: fura-2 intracellular Ca2+ imaging in HEK293 cells; format: cell-based, human; conditions: poly-APS 0.5 μg/ml, n=11
Description: HEK293 cells (human embryonic kidney cell line) were maintained in Dulbecco's modified Eagle's medium (DMEM). In preparation for transfection experiments cells were seeded 24 hours prior to experimentation at a density of 5×10^5 cells per well in six well plates, the same seeding density was used for confocal and electrophysiology/calcium imaging experiments in 35 mm culture dishes.
Cultured DRG neurones and HEK 293 cells were incubated for 1 hour in NaCl-based extracellular solution containing 10 μM fura-2AM (Sigma, 1 mM stock in dimethylformamide). The cells were then washed for 20 minutes to remove the extracellular fura-2AM and to allow cytoplasmic de-esterification of the Ca^2+ sensitive fluorescent dye. The cells were constantly perfused (1-2 ml/min) and viewed under an inverted Olympus BX50W1 microscope with a KAI-1001 S/N 5B7890-4201 Olympus camera attached. The fluorescence ratiometric images from the data obtained at excitation wavelengths of 340 nm and 380 nm were viewed and analysed using OraCal pro, Merlin morphometry temporal mode (Life Sciences resources, version 1.20).

[3] = system: cultured DRG neurones; assay: Whole-cell recording of membrane potential and input resistance in cultured DRG neurones; format: cell-based, rat; conditions: 1.5 mM zinc, before poly-APS, n=7
Description: (§1) Primary cultures of dorsal root ganglion (DRG) neurones were prepared following enzymatic and mechanical dissociation of dorsal root ganglia from decapitated 2-day old Sprague Dawley rats. The sensory neurones were plated on laminin-polyornithine coated coverslips and bathed in F14 culture medium (Imperial Laboratories) supplemented with 10% horse serum (Gibco), penicillin (5000 IU/ml), streptomycin ([…]), NaHCO3 (14 mM) and nerve growth factor (20 ng/ml). The cultures were maintained for up to 2 weeks at 37° C. in humidified air with 5% CO2, and re-fed with fresh culture medium every 5-7 days.
(§2) All experiments were conducted at room temperature (approximately 23° C.). The whole-cell recording technique was used to study the actions of poly-APS and halitoxin preparations on membrane potential, input resistance (evaluated from 100-300 ms electrotonic potentials evoked by −30 to −200 pA current commands) and holding current. […] Poly-APS and halitoxin were applied to the extracellular environment by low pressure ejection via a blunt micropipette (tip diameter about […]) positioned approximately […] from the neurone being recorded. […]
The electrophysiological data were stored on digital audio tape (DAT) using a DTR-1200 DAT recorder (Biologic) and subsequently analysed using Cambridge Electronic Design voltage clamp software (version 6). […]

[4] = system: cultured DRG neurones; assay: Voltage clamp recording of poly-APS evoked inward/holding current in DRG neurones; format: cell-based, rat; conditions: 1.5 mM zinc continually present, before poly-APS, n=6
Description: as §1
as §2, with “current. Whole cell recordings were made using an Axoclamp-2A switching voltage clamp amplifier operated at a sampling rate of 15-20 kHz.” for “current.”

| Compound | Kd [1] [nM] | effect of zinc on rise in intracellular Ca2+ produced by poly-APS [2] | resting membrane potential in the presence of zinc [3] [mV] | resting holding current at −90 mV with zinc [4] [pA] |
| --- | --- | --- | --- | --- |
| Cc1ccc(N(CC(=O)O)CC(=O)O)c(OCCOc2cc3cc(-c4ncc(C(=O)O)o4)oc3cc2N(CC(=O)O)CC(=O)O)c1 [fura-2] | ~2 |  |  |  |
| [Zn+2] [zinc] |  | attenuated | −47±7 | −120±30 |
